Measured values as given in patent US11541065B2, “Compositions and methods for treating brain injury” (UNM RAINFOREST INNOVATIONS, priority 2018, dated 2023).

Assays:
[1] = Total plasma homocysteine after osmotic pump implantation, rats (HPLC); type: in vivo; settings: male, Wistar, rat, sc, 200 mM solution (2 ml osmotic pump, flow rate 10 μl/hr), subcutaneous osmotic pump with 200 mM L-homocysteine
Experimental: (§1) L-homocysteine (200 mM) was freshly prepared by alkali hydrolysis of L-homocysteine thiolactone hydrochloride followed by neutralization, and maintained in 0.02 mM of N-Tris(hydroxymethyl)methyl-2-aminoethanesulfonic acid buffer pH 7.4 as previously described (Poddar et al., 2001, Circulation, 103:2717-2723). Osmotic pumps (Alzet, 2ML1, flow rate 10 μl/hr; Durect Corp., Cupertino, Calif.) containing either 2 ml of freshly prepared 200 mM L-homocysteine (for hyperhomocysteinemia) or normal saline (for control) were surgically implanted subcutaneously on the back and posterior to the scapulae of male Wistar rats under anesthesia (2% isoflurane in medical grade oxygen). The incision was closed after implantation and the rats were allowed to recover in their cage. For both WT and GluN2A-KO mice, osmotic pumps (Alzet, 2001, flow rate 1 μl/hr; Durect Corp., Cupertino, Calif.) containing either 200 μl of freshly prepared 200 mM L-homocysteine (for hyperhomocysteinemia) or normal saline (for control) were implanted similarly.
(§2) Blood was obtained from rats (retro-orbital) and mice (cardiac puncture) under anesthesia with 2% isoflurane in medical grade oxygen, before installation of osmotic pumps (0 day) and at various time points after installation of osmotic pumps (rats: day 3, day 5, and day 7; mice: day 3 and day 5). Blood was collected in standardized VACUTAINER venous blood collection EDTA-tubes (ThermoFisher Scientific, Inc., Waltham, Mass.) and centrifuged at 3,500 rpm for 15 minutes. The plasma obtained was analyzed for total plasma homocysteine levels using high performance liquid chromatography with post-column fluorescence detection as previously described (Gilfix et al., 1997, Clin Chem 43:687-688; Jacobsen et al., 1994, Clin Chem 40:873-881; Miller et al., 2013, Am J Clin Nutr 97:827-834).

[2] = Total plasma homocysteine after osmotic pump implantation, mice (HPLC); type: in vivo, WT and GluN2A-KO mice; settings: mouse, subcutaneous, 200 mM solution (200 μl osmotic pump, flow rate 1 μl/hr), osmotic pump with 200 mM L-homocysteine; for concentration at 5 day: day 5
Experimental: as §1, §2

IκB = IκB degradation in rat neuronal cultures (immunoblot); type: cell-based; settings: rat neurons, homocysteine 50 μM, four hours, alone
Experimental: Rat and mice neuronal cultures were washed with PBS (pH 7.4), containing sodium pyrophosphate and sodium vanadate as phosphatase inhibitors, and harvested in SDS sample buffer (Laemmli, 1970, Nature 227:680-685). Equal protein from total cell lysates, estimated using BCA kit, was resolved by SDS-PAGE (7.5%) followed by western blotting on PVDF membranes. Immunoblot analysis was performed by first blocking with 5% non-fat dry milk for 1 h at room temperature followed by incubation with either COX2 immunoblot analysis (Poddar and Paul, 2009, J Neurochem 110:1095-1106) as described in each experiment. All primary antibodies and horseradish peroxidase conjugated secondary antibodies were used according to manufacturer's recommendations. Signals from immune complexes in the blots were developed using West Pico supersignal chemiluminescence reagents and then captured on X-ray films. Densitometric analysis of the images was performed using the NIH Image J software.

SMILES: N[C@@H](CCS)C(=O)O [L-homocysteine]
- concentration at 3 day ([1]; day 3, basal 8.8±0.76 μM, read-out: total plasma homocysteine level): 23.2 ± 0.52 µM
- concentration at 5 day ([1]; day 5, read-out: total plasma homocysteine level): 23.6 ± 0.57 µM
- concentration at 7 day ([1]; day 7, read-out: total plasma homocysteine level): 20.5 ± 0.88 µM
- concentration at 3 day ([2]; GluN2A-KO mice, day 3, day 0 5.72±0.33 μM): 18.5 ± 2.55 µM
- concentration at 5 day ([2]; GluN2A-KO mice): 15.9 ± 2.09 µM
- concentration at 3 day ([2]; WT mice, day 3, day 0 6.6±0.73 μM): 19 ± 1.68 µM
- concentration at 5 day ([2]; WT mice): 16.7 ± 1.73 µM
- cellular level of IκB (IκB): significant decrease in the cellular level of IκB
